Test: gradient 5% acetonitrile 3 min, to 50% in 2 min, to 85% in 15 min, held 3 min, 100 µL/min
Details: column: Zorbax Extend-C18 2.1 x 50 mm; eluents: water / acetonitrile, 0.1% formic acid
Procedure, shortened: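 Data were gathered over 3 months by HPLC coupled to a quadrupole time-of-flight mass spectrometer, operated in positive and negative ionization mode. Mixtures of ~100 pure standards ran on a Zorbax Extend-C18 column (2.1 × 50 mm, 1.8 μm) at 100 μL/min, with water and acetonitrile each containing 0.1% formic acid and dead and dwell volumes of 40 μL and 900 μL. Retention time was read from adduct peaks picked by computer and checked manually.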

SMILES	RP-LC retention time [s]
Cc1cccc2nc(-c3c(F)cccc3Cl)c(Nc3ccc4c(c3)OCCO4)n12	678
CC(C)N1C(=O)c2cccnc2Sc2cc(C(=O)N3CCCN(C)CC3)ccc21	596
COC(=O)c1sccc1NC(=O)N1CCCn2nc(-c3ccncc3)cc2C1	647
Cc1nc2cccnc2n1C1CCN(C(=O)c2cccc(Cl)c2)C1 (stereo not drawn)	602
Cc1ccc(C2=NC(c3ccc([N+](=O)[O-])cc3)SC(N3CCOCC3)=N2)cc1 (stereo not drawn)	642
CCn1c(COc2cccc3cccnc23)nnc1SC(F)F	568
CCc1ccccc1NC(=O)C1CCN(S(=O)(=O)c2c(C)[nH]c(C)c2C(=O)N2CCCC2)CC1	726
O=c1ccn(-c2ccc(Cl)cc2)nc1-c1nc(-c2ccccc2)no1	938
CCCSCCCNC(=O)COc1ccccc1-c1nnc(-c2ccccc2)o1	1160
CCNC(=O)c1nc(C(=O)NCc2ccc(F)cc2F)cs1	780
CCOC(=O)N1CCC(NC(=O)C(=O)NCc2cccs2)CC1	692
CCOc1ccc(CC(=O)Nc2cc(-c3cccnc3)no2)cc1	760
O=C(NC1CCCCC1)c1ccc2ncnc(N3CCCCC3)c2c1	658
O=C(Nc1ccc(F)cc1F)Nc1c[nH]c2ccccc12	755
CCCCC(=O)N1CC(c2nc(-c3ccc(F)cc3)no2)C2(CCOCC2)C1 (stereo not drawn)	904
Cc1cccc(NC(=O)C2CCc3sc(C(=O)N(C)C)cc3C2)c1 (stereo not drawn)	846
CCC(CC)NC(=O)C1CC(=O)N(CCc2c[nH]c3ccc(Cl)cc23)C1 (stereo not drawn)	796
CC1(C)CC(=O)c2cn(-c3ccc(Cl)cc3)c(=O)c(C(=O)N3CCOCC3)c2C1	757
Cc1ccc(Nc2nc(-c3ccc(Cl)cc3)cs2)nc1	1050
CC(=O)N1CCc2cc(N3CC(C(=O)Nc4ccc(Br)cc4)CC3=O)ccc21 (stereo not drawn)	770

SMILES	RP-LC retention time [s]
COCCC1CCN(C(=O)CN(C)C(=O)COc2ccccc2)CC1	694
Cc1cccc(N2C(=O)CN(Cc3ccco3)[C@H]3CS(=O)(=O)C[C@H]32)c1	744
CCOc1ccc(NC(=O)N2CCC3(CC2)NC(=O)c2ccccc2N3CC)cc1	785
COc1cc2c(cc1OC)C(C1(O)CCCCC1)NCC2 (stereo not drawn)	660
C=CCc1cc(OC)c(O)c(C(=O)NCCO)c1	735
CC1(C)CS(=O)(=O)N(c2cccc(C(=O)NCCc3c[nH]c4ccccc34)c2)C1=O	825
Cc1noc2ncnc(N3CCCC(C(=O)Nc4ccc(N5CCC(C)CC5)cc4)C3)c12 (stereo not drawn)	698
O=C(NC(c1ccccc1)c1nnc(N2CCCC2)o1)c1ccc2c(c1)OCO2 (stereo not drawn)	777
COc1nc2ccccc2nc1N1CCCC(C(=O)N2CCN(c3ccccc3F)CC2)C1 (stereo not drawn)	1240
Cc1c(Cl)cccc1NC(=O)CCOc1ccccc1	888
O=C(NC1CCCC1)c1ccc(CN2CCN(Cc3ccccc3)C(=O)C2=O)cc1	734
NS(=O)(=O)c1ccc(CCNCc2ccc(-c3ccc(Cl)cc3Cl)o2)cc1	800
O=C(c1ccc2ccccc2n1)N1CCC(Oc2ccccc2)C1 (stereo not drawn)	937
CCn1cnnc1C1CCN(C(=O)c2sccc2C)CC1	561
CCn1cc(CCN2CCN(C(=O)C3CCCCC3)CC2)c2cccnc21	613
CCOC(=O)C1=C(CNc2ccc(C(F)(F)F)cc2)NC(=O)NC1c1ccc2c(c1)OCO2 (stereo not drawn)	966
CCOC(=O)C1=C(CN2CCCCC2)NC(=O)NC1c1ccc(OC(C)C)cc1 (stereo not drawn)	646
Cc1ccc2[nH]cc(CCNC(=O)CSCc3nnc(C(=O)Nc4ccc(F)cc4)s3)c2c1	918
O=C1CCN(S(=O)(=O)c2ccccc2)CCCN(S(=O)(=O)c2cccc(F)c2)CCN1	795
O=C(CSCc1ccccc1)N1CCC(Cn2cccn2)CC1	721

Next, values leading:

RP-LC retention time [s]	SMILES
683	COc1cccc(Nc2c(C(N)=O)cnc3c(C)cc(S(=O)(=O)c4cccc(C(=O)N(C)C)c4)cc23)c1
945	Cc1ccc(S(=O)(=O)Nc2ccc3c(c2)CCC(=O)N3CC(C)C)c(C)c1
1290	COc1ccc(-c2csc(Cc3nc(-c4ccc(Cl)cc4)no3)n2)cc1
954	Cc1nc(-n2c(C)ccc2C)sc1C(=O)NC(C)C
934	Cc1cc(Cl)ccc1NC(=O)CN(C)S(=O)(=O)c1cc(C(=O)N2CCC(C)CC2)n(C)c1
646	O=c1c2cc(-c3ccccc3)nn2ccn1Cc1noc(CN2CCCC2)n1
848	CCOC(=O)c1ccc(NC(=O)c2c(C)oc3nc(C)nc(N4CCCC4)c23)cc1
1220	COC(=O)c1ccc(NC(=O)N2CC(C)Oc3ccc(C)cc32)cc1 (stereo not drawn)
828	Cc1ccc(Cl)cc1N1CCN(c2cc(C(=O)O)c3cc(NC(=O)CC(C)C)ccc3n2)CC1
834	CCOC(=O)c1nc(SC)n(C)c1C(=O)OCC
1070	COc1ccc(-c2noc(Cc3nnc(-c4cccc(Cl)c4)o3)n2)cc1
683	Cc1ccc(C(CNC(=O)c2cc(-c3ccccc3)on2)N(C)C)o1 (stereo not drawn)
817	COc1ncccc1CNS(=O)(=O)c1ccc(C)cc1
1070	COc1ccc(-c2csc(NC(=O)Cn3c(=O)oc4cc(Br)ccc43)n2)cc1
919	CCCCS(=O)(=O)c1cc2c(cc1NC(=O)Cc1ccc(Cl)cc1)n(C)c(=O)n2C
684	COc1ccc(NC(=O)COc2ccc(-c3nnc4n3CCCC4)cc2)c(OC)c1
912	Cc1ccccc1CC(=O)Nc1ccc2c(c1)Sc1ncccc1C(=O)N2C(C)C
1340	CCOc1ccc(-c2noc(Cc3nc(-c4ccccc4Cl)cs3)n2)cc1
1030	COc1ccc(-c2nc(C3CC(=O)N(c4ccc(Cl)cc4)C3)no2)cc1F (stereo not drawn)
908	COc1ccccc1-c1noc(C2CCCN2C(=O)Nc2cccc(SC)c2)n1 (stereo not drawn)
809	COc1ccc(CNc2nc(NCc3ccc(OC)cc3)c3ncn(C(C)C)c3n2)cc1
836	CCC(NC(=O)c1ccc2c(c1)nc1n2CCN(Cc2ccccc2)C1=O)c1cccs1 (stereo not drawn)
1020	O=C(Cn1cnc2c(-c3ccc(F)cc3)csc2c1=O)N1CCCc2ccccc21
934	CCOc1ccc(NS(=O)(=O)c2ccc(-c3c(C)noc3C)cc2)cc1

RP-LC retention time [s]	SMILES
923	Cc1cccc(OCc2nc(-c3ccc4c(c3)nnn4CCC(=O)N3CCCC3)no2)c1
958	CCCOC(=O)c1ccc(Oc2c(C)oc3cc(OCC#N)ccc3c2=O)cc1
653	Cc1cc(C)nc(NS(=O)(=O)c2ccc(NC(=O)c3c(F)cccc3F)cc2)n1
829	CCc1noc2nc(C)n(CC(=O)NCc3ccc(C)cc3)c(=O)c12
922	Cc1ccc(C)c(C(=O)Nc2ccc3c(c2)Sc2ncccc2C(=O)N3C(C)C)c1
743	Cc1ccc(-c2ccc(N3CCN(c4ccccn4)CC3)nn2)cc1S(=O)(=O)N1CCC(C)CC1
1100	COc1ccc(-c2nc(Cn3c(=O)c4c(C)cc(C)nc4n(C)c3=O)c(C)o2)cc1OC
807	CCOC(=O)c1c(S(=O)(=O)N2CCC(C(=O)Nc3ccc4c(c3)OCO4)CC2)c(C)n(C)c1C
1030	Cc1ccc(S(=O)(=O)c2cnc(N3CCN(C(=O)OC(C)(C)C)CC3)nc2N)cc1
802	COc1cccc(-c2noc(C3CCCN3C(=O)NC(C)C)n2)c1 (stereo not drawn)
749	Cc1ccc(CNC(=O)c2cc(-c3ccncc3)cn2Cc2ccccc2C)o1
1130	Cc1nnc2nc(-c3ccccc3)nc(-c3ccccc3)n12
945	Cn1cnc2c(C(=O)Nc3cccc(Cl)c3)nn(-c3ccccc3)c2c1=O
718	CCOC(=O)COC(=O)c1cn(-c2cccc(C)c2)c(=O)c2ccccc12
1110	Fc1cccc(-c2noc(Cc3nnc(-c4cccc(Cl)c4)o3)n2)c1
810	COc1ccc(NC(=O)Cn2c(=O)c3cc(-c4cccs4)nn3c3ncccc32)cc1
820	Cc1ccc(NC(=O)C2CCCN(c3nnc(C)c4c(C)n(-c5ccccc5)nc34)C2)cc1C (stereo not drawn)
691	O=C(Cc1c(F)cccc1Cl)Nc1nnc(C2CC(=O)N(c3ccccc3)C2)o1 (stereo not drawn)
802	COc1ccccc1-c1nnc(-c2cccc(S(=O)(=O)N3CCOCC3)c2)o1
780	CCN(c1ccccc1F)S(=O)(=O)c1cc2n(c1)CCCN(C)C2=O
719	COc1ccc(OC)c(S(=O)(=O)NCc2ccc3c(c2)CCN3C(C)=O)c1
689	COc1ccc2c(=O)oc3c(OC)cc(CCN(C)C)c4c(=O)oc1c2c34
1070	CSc1ccc(-c2nc3cnccn3c2Nc2cc(C)cc(C)c2)cc1
736	CC(C)NC(=O)c1ccc2c(c1)Sc1ncccc1C(=O)N2C(C)C
